Results taken from patent US20150099800A1, “NOVEL LIPASE INHIBITORS, REPORTER SUBSTRATES AND USES THEREOF” (Northeastern University, priority 2012, published 2015).
“Also recorded” adds a separate entry of the source. Where two headings read alike, the source gives them in different places. Blank lines part the entries; values can stand above or below the compound they belong to.

Assays:
hDAGLα [1] = biological target: T1, hDAGLα (Homo sapiens, UniProt Q9Y4D2); test: Evaluation of FRET reporter substrates for enzymatic hydrolysis; assay type: biochemical; set-up: V5; His; expressed in transfected cells; host or cells: HEK293T, transient; crude cell lysate or membrane preparation
T1 sequence (Q9Y4D2 1-1042): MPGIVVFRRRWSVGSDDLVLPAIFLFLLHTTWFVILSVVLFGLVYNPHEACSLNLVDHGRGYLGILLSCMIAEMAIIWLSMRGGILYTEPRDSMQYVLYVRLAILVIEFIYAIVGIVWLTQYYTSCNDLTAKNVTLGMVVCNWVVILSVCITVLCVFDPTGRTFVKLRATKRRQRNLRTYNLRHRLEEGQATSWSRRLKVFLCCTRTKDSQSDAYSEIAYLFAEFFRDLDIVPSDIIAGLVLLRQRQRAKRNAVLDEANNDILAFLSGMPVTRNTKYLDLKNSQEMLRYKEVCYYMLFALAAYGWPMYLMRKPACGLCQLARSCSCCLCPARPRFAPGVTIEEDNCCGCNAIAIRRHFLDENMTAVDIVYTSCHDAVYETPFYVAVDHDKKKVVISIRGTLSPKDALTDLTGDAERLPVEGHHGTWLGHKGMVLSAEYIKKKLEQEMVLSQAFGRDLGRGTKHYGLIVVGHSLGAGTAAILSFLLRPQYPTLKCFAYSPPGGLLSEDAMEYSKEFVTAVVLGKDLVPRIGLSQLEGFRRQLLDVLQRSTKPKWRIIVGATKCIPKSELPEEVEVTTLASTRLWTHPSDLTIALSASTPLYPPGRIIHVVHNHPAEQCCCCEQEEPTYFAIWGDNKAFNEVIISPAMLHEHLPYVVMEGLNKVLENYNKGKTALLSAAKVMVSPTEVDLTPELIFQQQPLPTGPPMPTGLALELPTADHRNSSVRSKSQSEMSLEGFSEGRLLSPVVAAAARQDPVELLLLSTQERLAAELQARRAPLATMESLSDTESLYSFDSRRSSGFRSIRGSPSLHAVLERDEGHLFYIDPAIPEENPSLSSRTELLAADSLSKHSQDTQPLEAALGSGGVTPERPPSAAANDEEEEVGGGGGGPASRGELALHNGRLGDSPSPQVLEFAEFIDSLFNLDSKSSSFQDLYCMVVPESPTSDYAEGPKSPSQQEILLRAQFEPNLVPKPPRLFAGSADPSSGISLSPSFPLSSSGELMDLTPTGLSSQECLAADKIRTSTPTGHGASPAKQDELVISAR
Description: Reporter compounds as substrates for hDAGLα activity with HEK293T cell lysates in the presence of 10% DMSO are shown. A) Pyrenyl analogs (17)-(19), (21), and (22) (EX 320 nm, EM 400 nm). B) NBD analog (20) (EX 485 nm, EM 535 nm).
A convenient in vitro fluorometric esterase assay utilizing the BioTek Instruments Synergy™ HT Multi-Mode Microplate 96-well reader was developed that measured nanomolar concentrations of fluorescent reaction product.

[2] = system: Lipoprotein Lipase (Bacterial); assay type: biochemical, Pseudomonas sp.
[3] = biological target: T2, Pancreatic Lipase (Porcine) (Sus scrofa, UniProt P00591); assay type: biochemical
T2 construct: purchased Sigma L3126
T2 sequence (P00591 1-450): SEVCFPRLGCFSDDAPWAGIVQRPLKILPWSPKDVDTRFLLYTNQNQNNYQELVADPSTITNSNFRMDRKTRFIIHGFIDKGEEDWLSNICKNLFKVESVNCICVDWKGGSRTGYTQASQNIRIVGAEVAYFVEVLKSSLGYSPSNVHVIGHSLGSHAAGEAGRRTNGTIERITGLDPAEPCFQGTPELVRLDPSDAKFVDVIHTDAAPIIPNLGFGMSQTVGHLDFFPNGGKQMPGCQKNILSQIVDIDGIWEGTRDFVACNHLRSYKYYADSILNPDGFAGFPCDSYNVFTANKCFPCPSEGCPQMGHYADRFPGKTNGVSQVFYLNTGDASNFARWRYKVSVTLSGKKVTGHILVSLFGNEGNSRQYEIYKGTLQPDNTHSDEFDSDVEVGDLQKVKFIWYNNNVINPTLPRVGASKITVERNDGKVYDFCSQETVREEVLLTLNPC

hDAGLα [4] = biological target: T1, hDAGLα
mDAGLα = biological target: T3, mDAGLα (Mus musculus, UniProt Q6WQJ1); test: Radio-TLC assay with [14C]SAG substrate, mDAGLα
T3 sequence (Q6WQJ1 1-1044): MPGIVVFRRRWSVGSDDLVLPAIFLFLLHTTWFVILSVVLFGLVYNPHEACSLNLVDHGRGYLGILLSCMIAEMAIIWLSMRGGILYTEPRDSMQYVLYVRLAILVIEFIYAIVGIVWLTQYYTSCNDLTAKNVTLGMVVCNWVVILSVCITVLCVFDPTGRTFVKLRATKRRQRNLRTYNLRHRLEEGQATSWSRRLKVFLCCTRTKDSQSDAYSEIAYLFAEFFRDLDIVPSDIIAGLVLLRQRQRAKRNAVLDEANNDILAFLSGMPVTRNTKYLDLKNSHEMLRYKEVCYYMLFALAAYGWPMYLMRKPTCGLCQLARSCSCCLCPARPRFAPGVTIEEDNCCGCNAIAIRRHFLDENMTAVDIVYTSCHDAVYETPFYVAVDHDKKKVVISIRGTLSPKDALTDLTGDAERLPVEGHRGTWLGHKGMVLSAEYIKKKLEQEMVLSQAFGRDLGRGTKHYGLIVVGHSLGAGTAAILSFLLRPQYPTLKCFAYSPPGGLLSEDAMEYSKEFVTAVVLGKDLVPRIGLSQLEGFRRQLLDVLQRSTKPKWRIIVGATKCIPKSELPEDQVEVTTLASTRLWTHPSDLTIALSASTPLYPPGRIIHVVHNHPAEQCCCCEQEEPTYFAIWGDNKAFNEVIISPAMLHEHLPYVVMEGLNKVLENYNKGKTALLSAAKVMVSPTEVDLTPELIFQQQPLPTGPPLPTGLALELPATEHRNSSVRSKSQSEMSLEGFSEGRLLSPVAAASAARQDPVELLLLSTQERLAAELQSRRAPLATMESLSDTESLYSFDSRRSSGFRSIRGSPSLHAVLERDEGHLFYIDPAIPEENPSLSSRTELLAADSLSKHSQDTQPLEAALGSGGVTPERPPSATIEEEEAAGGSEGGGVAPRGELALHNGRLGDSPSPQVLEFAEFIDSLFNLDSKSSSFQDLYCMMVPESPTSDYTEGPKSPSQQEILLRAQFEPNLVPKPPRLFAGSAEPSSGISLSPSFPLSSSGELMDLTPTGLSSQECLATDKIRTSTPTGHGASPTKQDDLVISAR

MAGL [5] = biological target: T4, MAGL (Homo sapiens, UniProt Q99685); test: hMAGL coumarin substrate fluorescence assay; assay type: biochemical; set-up: The N-terminal his-tagged full length human monoacylglycerol lipase used; His (N); made in house; host or cells: E. coli
T4 sequence (Q99685 1-303): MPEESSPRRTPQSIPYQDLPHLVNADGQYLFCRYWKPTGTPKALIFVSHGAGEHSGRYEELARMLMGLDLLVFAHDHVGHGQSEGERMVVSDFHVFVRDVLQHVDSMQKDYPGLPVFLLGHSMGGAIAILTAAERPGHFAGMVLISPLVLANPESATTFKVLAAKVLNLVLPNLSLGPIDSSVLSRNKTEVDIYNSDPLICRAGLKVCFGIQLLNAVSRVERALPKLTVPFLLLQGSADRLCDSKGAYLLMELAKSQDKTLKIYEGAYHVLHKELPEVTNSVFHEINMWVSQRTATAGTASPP

rFAAH = biological target: T5, rFAAH (Rattus norvegicus, UniProt P97612); test: rFAAH coumarin substrate fluorescence assay; assay type: biochemical
T5 construct: His (N); made in house; host or cells: E. coli (cell line provided by the Cravatt group)
T5 sequence (P97612 30-579 limits assumed): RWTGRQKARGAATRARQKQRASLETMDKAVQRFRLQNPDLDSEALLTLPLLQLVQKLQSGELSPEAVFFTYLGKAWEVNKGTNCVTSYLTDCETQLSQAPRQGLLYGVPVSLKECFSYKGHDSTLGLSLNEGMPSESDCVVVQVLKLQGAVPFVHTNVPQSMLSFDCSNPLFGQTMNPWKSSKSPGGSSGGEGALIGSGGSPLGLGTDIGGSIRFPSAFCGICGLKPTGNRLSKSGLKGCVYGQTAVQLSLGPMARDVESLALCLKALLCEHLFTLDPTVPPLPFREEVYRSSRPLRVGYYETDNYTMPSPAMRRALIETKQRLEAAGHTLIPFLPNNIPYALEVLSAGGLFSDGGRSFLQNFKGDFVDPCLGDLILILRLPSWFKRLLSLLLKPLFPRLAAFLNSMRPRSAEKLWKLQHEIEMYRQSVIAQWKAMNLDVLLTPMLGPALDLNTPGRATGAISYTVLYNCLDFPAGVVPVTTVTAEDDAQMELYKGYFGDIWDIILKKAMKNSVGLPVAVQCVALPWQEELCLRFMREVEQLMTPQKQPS

FAAH = conditions: cited from earlier work
hDAGLα [6] = biological target: T1, hDAGLα; remark: listed apart in the source
DAGL = conditions: cited from earlier work
cannabinoid receptors = conditions: literature; cited from earlier work
MAGL [7] = biological target: T4, MAGL; conditions: cited from earlier work

Compound: O=C(Oc1ccc([N+](=O)[O-])cc1)N1CCN(Cc2cccc(Oc3ccccc3)c2)CC1 [JZL195]
- Lipoprotein Lipase (Bacterial) inhibition at 10 μM (%) [2]: <0%
- Pancreatic Lipase (Porcine) inhibition at 10 μM (%) [3]: 43%
- hDAGLα inhibition at 10 μM detergent free (%), FRET (hDAGLα [4]): 64, 55° %
- hDAGLα inhibition at 10 μM detergent free (%), FRET, marker ° (hDAGLα [4]): 64, 55° %
- mDAGLα inhibition at 10000 nM (%) (mDAGLα): 10%

Compound: CCCCCCC[C@@H]1OC(=O)[C@H]1CCCCCC (relative stereo) [Compound 10, trans-3-hexyl-4-heptyloxetan-2-one]
- Lipoprotein Lipase (Bacterial) inhibition at 10 μM (%) ([2]; 10 μM): 67%
- inhibition at 10 µM (MAGL [5]; read-out: hMAGL inhibition at 10 μM (%)): 56%

Compound: CCCCCCCCCCCCCCCCS(=O)(=O)F [n-C16H33SO2F, Palmitylsulfonyl fluoride]
- rFAAH inhibition at 10 μM (%) (rFAAH): 100^E %
- IC50 (rFAAH; read-out: rFAAH apparent IC50 (8 pt, 95% confidence)): 6.3 nM
- IC50 (FAAH; read-out: IC50 FAAH with radiolabeled N-arachidonoylethanolamine (anandamide) substrate): 7 nM

Compound: CCCCCCCCCCC[C@@H](C[C@@H]1OC(=O)[C@H]1CCCCCC)OC(=O)[C@@H](NC=O)[C@@H](C)CC [Compound 4]
- rFAAH inhibition at 10 μM (%) (rFAAH; 10 μM): 7%
- Lipoprotein Lipase (Bacterial) inhibition at 10 μM (%) ([2]; 10 μM): 84%
- Pancreatic Lipase (Porcine) inhibition at 10 μM (%) ([3]; 10 μM): 99%
- hDAGLα inhibition at 10 μM (0.05% Triton X-100) (%), FRET (hDAGLα [4]; 10 μM): 99%
- hDAGLα inhibition at 10 μM detergent free (%), FRET (hDAGLα [4]; 10 μM, detergent free): 92%
- mDAGLα inhibition at 10 nM (%) (mDAGLα): 69%
- mDAGLα inhibition at 100 nM (%) (mDAGLα): 80%
- mDAGLα inhibition at 1000 nM (%) (mDAGLα): 96%
- mDAGLα inhibition at 10000 nM (%) (mDAGLα): 96%
- hMAGL inhibition at 10 μM (%) (MAGL [5]): 16%

Compound: O=S(=O)(F)Cc1ccccc1 [PMSF, phenylmethylsulfonylfluoride]
- Lipoprotein Lipase (Bacterial) inhibition at 10 μM (%) [2]: <0%
- inhibition of hDAGLα in radio-TLC assays (hDAGLα [6]): poor inhibitors
- effect on DAGL activity reported in the literature (DAGL): poor inhibitors; also recorded: not affected
- binding to the cannabinoid receptors, previous reports (cannabinoid receptors): did not bind
- inhibition of MAGL activity reported in the literature (MAGL [7]): poor inhibitors
- inhibition of FAAH activity reported in the literature (FAAH): poor inhibitors

Now from value to compound:

- quality as substrate for enzymatic hydrolysis (hDAGLα [1]): poor substrates
Compound: 1-(5-Dimethyloxazolinyloxyl)stearoyl-2-pyrenebutanoyl-3-methyl-sn-glycerol [Compound 21]

- Lipoprotein Lipase (Bacterial) inhibition at 10 μM (%) ([2]; 10 μM): <0%
- inhibition at 10 µM ([3]; read-out: Pancreatic Lipase (Porcine) inhibition at 10 μM (%)): 36%
Compound: CCCCCCCCCCCCCC1CC(=O)O1 (racemic) [Compound 9, 4-Tridecyloxetan-2-one]

- Lipoprotein Lipase (Bacterial) inhibition at 10 μM (%) ([2]; 10 μM): 33%
Compound: CCCCCCC[C@H]1OC(=O)[C@H]1CCCCCC (relative stereo) [Compound 11, cis-3-Hexyl-4-heptyloxetan-2-one]

- rFAAH inhibition at 10 μM (%) (rFAAH; 10 μM): 3%
- Lipoprotein Lipase (Bacterial) inhibition at 10 μM (%) ([2]; 10 μM): 61%
- Pancreatic Lipase (Porcine) inhibition at 10 μM (%) ([3]; 10 μM): 98%
- hDAGLα inhibition at 10 μM (0.05% Triton X-100) (%), FRET (hDAGLα [4]; 10 μM): 99%
- hDAGLα inhibition at 10 μM detergent free (%), FRET (hDAGLα [4]; 10 μM, detergent free): 92%
- mDAGLα inhibition at 10 nM (%) (mDAGLα): 60%
- mDAGLα inhibition at 100 nM (%) (mDAGLα): 61%
- mDAGLα inhibition at 1000 nM (%) (mDAGLα): 88%
- mDAGLα inhibition at 10000 nM (%) (mDAGLα): 100%
- hMAGL inhibition at 10 μM (%) (MAGL [5]): 1%
Compound: CCCCCCCCCCC[C@@H](C[C@@H]1OC(=O)[C@H]1CCCCCC)OC(=O)[C@@H](NC=O)[C@H](C)CC [Compound 5]

- quality as substrate for enzymatic hydrolysis (hDAGLα [1]): poor substrates
Compound: 1-(16-Dimethyloxazolinyloxyl)stearoyl-2-pyrenebutanoyl-3-methyl-sn-glycerol [Compound 22]
